Reference: ChEMBL document CHEMBL4152365, “Discovery of DS-6930, a potent selective PPARγ modulator. Part I: Lead identification” (Bioorg Med Chem, 2018)
Converted amounts (≈) assume the structure as drawn. The source made the active and inactive calls. The rule behind the calls is not given here.

How the values were obtained:
Mus musculus [1] = assay: Glucose-lowering effect in hyperglycemic KK/Ta mouse assessed as reduction in plasma glucose level at 30 mg/kg/day, po administered through diet for 3 days relative to control; format: functional; set-up: scale not given: the % may be the effect or the level left
[2] = target: T1, Peroxisome proliferator-activated receptor alpha (Homo sapiens) (UniProt Q07869); assay: Agonist activity at recombinant human GAL4-DBD fused PPARalpha LBD expressed in COS7 cells at 10 uM after 24 hrs by luciferase reporter gene assay relative to 2-(4-tert-Butylphenoxy)-3-[4-[2-[(4-pyridin-2-ylbenzoyl)amino]ethoxy]; format: cell-based
T1 sequence (whole entry): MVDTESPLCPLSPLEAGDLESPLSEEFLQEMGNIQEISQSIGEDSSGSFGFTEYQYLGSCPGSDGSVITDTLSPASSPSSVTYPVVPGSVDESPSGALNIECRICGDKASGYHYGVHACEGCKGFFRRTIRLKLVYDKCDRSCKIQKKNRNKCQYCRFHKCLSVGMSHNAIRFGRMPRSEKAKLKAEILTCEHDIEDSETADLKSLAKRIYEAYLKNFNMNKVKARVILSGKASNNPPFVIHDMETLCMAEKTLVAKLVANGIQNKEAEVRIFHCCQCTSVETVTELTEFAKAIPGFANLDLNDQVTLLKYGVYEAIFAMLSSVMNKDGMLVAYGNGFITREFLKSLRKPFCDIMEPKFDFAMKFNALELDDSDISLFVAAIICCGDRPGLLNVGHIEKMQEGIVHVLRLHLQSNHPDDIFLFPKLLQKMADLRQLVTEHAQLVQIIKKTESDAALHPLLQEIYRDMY

[3] = Metabolic stability in human liver microsomes after 0.5 hrs; format: ADME, microsome; settings: read-out: Stability
Mus musculus [4] = assay: Toxicity in hyperglycemic KK/Ta mouse assessed as body weight gain at 30 mg/kg/day, po administered through diet for 3 days relative to control; format: organism-based; settings: in vivo, 72 h
[5] = target: T2, Peroxisome proliferator-activated receptor gamma (Homo sapiens, UniProt P37231); assay: Agonist activity at recombinant human GAL4-DBD fused PPARgamma LBD expressed in COS7 cells after 24 hrs by luciferase reporter gene assay; format: cell-based
T2 sequence (P37231 whole entry): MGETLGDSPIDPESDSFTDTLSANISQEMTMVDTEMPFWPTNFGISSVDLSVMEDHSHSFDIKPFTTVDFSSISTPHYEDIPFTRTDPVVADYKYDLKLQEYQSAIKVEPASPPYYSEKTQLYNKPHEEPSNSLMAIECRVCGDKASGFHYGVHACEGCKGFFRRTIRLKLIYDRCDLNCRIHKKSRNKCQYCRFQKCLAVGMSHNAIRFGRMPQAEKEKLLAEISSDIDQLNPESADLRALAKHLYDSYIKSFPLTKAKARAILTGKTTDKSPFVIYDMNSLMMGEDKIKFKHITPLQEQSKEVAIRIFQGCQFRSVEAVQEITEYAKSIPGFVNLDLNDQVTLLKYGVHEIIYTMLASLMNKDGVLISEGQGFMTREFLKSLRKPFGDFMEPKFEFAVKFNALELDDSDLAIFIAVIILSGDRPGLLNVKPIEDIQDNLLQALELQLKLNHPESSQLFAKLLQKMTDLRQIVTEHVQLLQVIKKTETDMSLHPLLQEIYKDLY

[6] = 1-octanol/PBS distribution co-efficient, log D of the compound at […] at pH 7.4 after 30 mins by HPLC-MS/MS analysis; format: physicochemical
[7] = Plasma concentration in hyperglycemic KK/Ta mouse at 30 mg/kg/day, po administered through diet for 3 days measured on day 3 post last dose; format: ADME, organism-based
[8] = target: T3, Peroxisome proliferator-activated receptor alpha (Homo sapiens, UniProt Q07869); assay: Agonist activity at recombinant human GAL4-DBD fused PPARalpha LBD expressed in COS7 cells after 24 hrs by luciferase reporter gene assay; format: cell-based
T3 sequence (Q07869 whole entry): T1 sequence (whole entry)

[9] = target: T4, Peroxisome proliferator-activated receptor gamma (Homo sapiens) (UniProt P37231); assay: Agonist activity at recombinant human GAL4-DBD fused PPARgamma LBD expressed in COS7 cells at 10 uM after 24 hrs by luciferase reporter gene assay relative to rosiglitazone; format: cell-based
T4 sequence (whole entry): T2 sequence (P37231 whole entry)

[10] = Aqueous thermodynamic solubility of the compound in pH 6.8 solution up to 4 hrs by HPLC-UV analysis; format: physicochemical; settings: read-out: Therm_solubility
[11] = target: T5, Peroxisome proliferator-activated receptor delta (Homo sapiens) (UniProt Q03181); assay: Agonist activity at PPARdelta (unknown origin) at 10 uM
T5 sequence (whole entry): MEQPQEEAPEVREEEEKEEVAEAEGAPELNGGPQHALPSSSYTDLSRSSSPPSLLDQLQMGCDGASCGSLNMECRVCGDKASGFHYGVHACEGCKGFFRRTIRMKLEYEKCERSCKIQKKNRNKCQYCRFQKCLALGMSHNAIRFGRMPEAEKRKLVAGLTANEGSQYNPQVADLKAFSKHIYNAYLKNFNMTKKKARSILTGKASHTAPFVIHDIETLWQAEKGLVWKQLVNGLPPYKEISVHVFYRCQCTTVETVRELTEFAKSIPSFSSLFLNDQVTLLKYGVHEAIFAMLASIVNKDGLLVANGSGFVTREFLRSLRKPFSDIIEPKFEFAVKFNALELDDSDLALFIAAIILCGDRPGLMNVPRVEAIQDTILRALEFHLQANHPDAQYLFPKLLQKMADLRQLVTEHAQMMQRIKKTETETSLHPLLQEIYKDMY

Row | Compound | Activity (Mus musculus [1]) [%] | Emax [2] [%] | remaining at 0.5 h [3] [%] | Activity (Mus musculus [4]) [%] | EC50 [5] [nM] | logD at 0.5 h [6] | concentration at 72 h [7] [ng/mL] | EC50 [8] [nM] | Emax [9] [%] | solubility thermodynamic at 4 h [10] [µg/mL] | Activity [11]
1 | Cl.Cn1c(COc2cccc(C(=O)O)c2)nc2ccc(Oc3ccc(F)c(F)c3)cc21 | 56 | 39 | 100 | 3.4 | 118 | 2 | 160 | > 10000 | 71 | – | –
2 | Cn1c(COc2cccc(C(=O)O)c2)nc2ccc(Oc3ccc(F)cc3F)cc21 | 37.6 | 17 | 100 | 3.7 | 143 | 1.9 | 370 | > 10000 | 77 | 11 (≈ 26.8 µM) | –
3 | Cc1cc(Oc2ccc3nc(COc4ccccc4C#N)n(C)c3c2)cc(C)c1N | – | – | – | – | 391 | – | – | – | 80 | – | –
4 | CC(=O)c1cccc(OCc2nc3ccc(Oc4cc(C)c(N)c(C)c4)cc3n2C)c1 | – | – | – | – | 65 | – | – | – | 86 | – | –
5 | Cc1cc(Oc2ccc3nc(COc4ccc(C(=O)O)cc4)n(C)c3c2)cc(C)c1N | – | – | – | – | 797 | – | – | – | 91 | – | –
6 | Cn1c(COc2cccc(C(=O)O)c2)nc2ccc(Oc3c(F)cccc3F)cc21 | – | 19 | 85 | – | 1330 | 1.8 | – | > 10000 | 76 | – | –
7 | Cc1cc(Oc2ccc3nc(COc4cccc(C#N)c4)n(C)c3c2)cc(C)c1N | – | – | – | – | 43 | – | – | – | 92 | – | –
8 | Cn1c(COc2cccc(C(=O)O)c2)nc2ccc(Oc3ccc4ccoc4c3)cc21 | 48.3 | 37 | 100 | 2.5 | 188 | 2.4 | 380 | > 10000 | 79 | 0.8 (≈ 1.93 µM) | –
9 | COc1ccc2nc(COc3ccc(CC4SC(=O)NC4=O)cc3)n(C)c2c1 (centres undefined) [RIVOGLITAZONE] | – | – | – | – | 43 | – | – | – | 126 | – | –
10 | Cn1c(COc2cccc(C(=O)O)c2)nc2ccc(Oc3cccc(F)c3F)cc21 | 35.8 | 52 | 88 | 4.3 | 230 | 2.1 | – | – | 86 | – | –
11 | Cl.Cn1c(COc2cccc(C(=O)O)c2)nc2ccc(Oc3ccc4c(c3)CCO4)cc21 | – | 8 | 87 | – | 87 | 1.7 | – | > 10000 | 60 | 7.6 | –
12 | Cn1c(COc2cccc(C(=O)O)c2)nc2ccc(Oc3ccccc3F)cc21 | – | 21 | – | – | 1430 | 1.7 | – | > 10000 | 125 | 12 (≈ 30.6 µM) | inactive
13 | Cn1c(COc2cccc(C(=O)O)c2)nc2ccc(Oc3cc(F)cc(F)c3)cc21 | 39.5 | 33 | – | 4.4 | 95 | 2.3 | 360 | > 10000 | 54 | 10 (≈ 24.4 µM) | –
14 | Cc1cc(Oc2ccc3nc(COc4ccccc4C(=O)O)n(C)c3c2)cc(C)c1N | – | – | – | – | 6090 | – | – | – | 52 | – | –
15 | Cl.Cn1c(COc2cccc(C(=O)O)c2)nc2ccc(Oc3ccc(F)c(Cl)c3)cc21 | 30 | 52 | – | 3.7 | 64 | 2.8 | 170 | – | 79 | – | –
